Measurements from the supplement of paper PMC13380429.

Experiments:
Conditions in all cases: 72 h
Caco-2 [1] = test: cell viability relative to DMSO; higher = less toxic
Calu-3 [2] = test: as above
HepG2 [3] = test: as above
U2OS [4] = test: as above
Vero E6 [5] = test: as above
Caco-2 [6] = test: relative viability EC50 (midpoint between 100% and the lowest measured viability); higher = less toxic
Calu-3 [7] = test: as above
HepG2 [8] = test: as above
U2OS [9] = test: as above
Vero E6 [10] = test: as above
Caco-2 [11] = test: drug sensitivity score (DSS) for viability; higher = more toxic; extreme values may be limits of the assay
Calu-3 [12] = test: as above
HepG2 [13] = test: as above
U2OS [14] = test: as above
Vero E6 [15] = test: as above

SMILES | cell viability (Caco-2 [1]; 1 nM) [%] | cell viability (Caco-2 [1]; 10 nM) [%] | cell viability (Caco-2 [1]; 100 nM) [%] | cell viability (Caco-2 [1]; 1000 nM) [%] | cell viability (Caco-2 [1]; 10000 nM) [%] | cell viability (Calu-3 [2]; 1 nM) [%] | cell viability (Calu-3 [2]; 10 nM) [%] | cell viability (Calu-3 [2]; 100 nM) [%] | cell viability (Calu-3 [2]; 1000 nM) [%] | cell viability (Calu-3 [2]; 10000 nM) [%] | cell viability (HepG2 [3]; 1 nM) [%] | cell viability (HepG2 [3]; 10 nM) [%] | cell viability (HepG2 [3]; 100 nM) [%] | cell viability (HepG2 [3]; 1000 nM) [%] | cell viability (HepG2 [3]; 10000 nM) [%] | cell viability (U2OS [4]; 1 nM) [%] | cell viability (U2OS [4]; 10 nM) [%] | cell viability (U2OS [4]; 100 nM) [%] | cell viability (U2OS [4]; 1000 nM) [%] | cell viability (U2OS [4]; 10000 nM) [%] | cell viability (Vero E6 [5]; 1 nM) [%] | cell viability (Vero E6 [5]; 10 nM) [%] | cell viability (Vero E6 [5]; 100 nM) [%] | cell viability (Vero E6 [5]; 1000 nM) [%] | cell viability (Vero E6 [5]; 10000 nM) [%] | relative viability EC50 (Caco-2 [6]) [µM] | relative viability EC50 (Calu-3 [7]) [µM] | relative viability EC50 (HepG2 [8]) [µM] | relative viability EC50 (U2OS [9]) [µM] | relative viability EC50 (Vero E6 [10]) [µM] | drug sensitivity score (Caco-2 [11]) | drug sensitivity score (Calu-3 [12]) | drug sensitivity score (HepG2 [13]) | drug sensitivity score (U2OS [14]) | drug sensitivity score (Vero E6 [15])
CC(C)[C@H]1[C@@H]2CC[C@@H](C2)[C@@H]1N | 96.8 | 98.9 | 106 | 100 | 83.9 | 102 | 99.7 | 98.6 | 96 | 104 | 89.5 | 95 | 93.6 | 97.4 | 90.1 | 103 | 102 | 98 | 93.6 | 92.1 | 89.6 | 99.3 | 88.5 | 95.3 | 108 | > 10 | > 10 | > 10 | > 10 | > 10 | 0.3 | 0 | 0 | 0 | 0
CCC(=O)c1cc(-c2ccc(Cl)cc2)n(-c2ccc(S(N)(=O)=O)cc2)c1C | 101 | 91.1 | 107 | 96.5 | 89.7 | 96.6 | 97.4 | 103 | 102 | 103 | 105 | 102 | 102 | 122 | 91.5 | 103 | 99.6 | 99.3 | 96.4 | 102 | 103 | 104 | 98.4 | 101 | 91.2 | > 10 | > 10 | > 10 | > 10 | > 10 | 0 | 0 | 0 | 0 | 0
CCCC[P+](CCCC)(CCCC)Cc1ccc(NC(=O)[C@H](Cc2ccc3ccccc3c2)N/C(=N/C2CCCCC2)NC2CCCCC2)cc1 | 90.8 | 100 | 87.9 | 102 | 81.4 | 94.7 | 91.2 | 97.5 | 97.4 | 86.2 | 95.5 | 107 | 117 | 97.3 | 88.5 | 98.7 | 99.7 | 96.5 | 96.6 | 88.9 | 102 | 97.7 | 107 | 100 | 90.7 | > 10 | > 10 | > 10 | > 10 | > 10 | 0.4 | 0 | 0.1 | 0 | 0
CCCCc1ccc(NS(=O)(=O)c2ccc(F)cc2)cc1 | 94.9 | 87.2 | 98.6 | 93.3 | 88.5 | 93.2 | 87.6 | 100 | 98.5 | 102 | 101 | 114 | 86.6 | 99.4 | 86.5 | 97.4 | 96.2 | 99 | 101 | 100 | 101 | 101 | 99.9 | 99.1 | 96.2 | > 10 | > 10 | > 10 | > 10 | > 10 | 0 | 0 | 1.6 | 0 | 0
CCCc1c(OCC(O)COc2ccc3c(=O)cc(C(=O)O)oc3c2CCC)ccc(C(C)=O)c1O (stereo not given) | 99.1 | 92.4 | 93.6 | 102 | 95 | 107 | 90.8 | 99.7 | 102 | 109 | 99.8 | 107 | 96.9 | 103 | 92.4 | 104 | 95.5 | 102 | 97.4 | 98.9 | 102 | 105 | 97.2 | 97.9 | 89.6 | > 10 | > 10 | > 10 | > 10 | > 10 | 0 | 0 | 0 | 0 | 0
CCOC(=O)[C@@H](C)Oc1cccc2c(=O)n(CC(=O)Nc3ccc4c(c3)OCCO4)ccc12 | 90.5 | 113 | 95.5 | 101 | 83.5 | 92.5 | 88.6 | 80.8 | 95.5 | 89.8 | 106 | 92.7 | 98.6 | 91.4 | 102 | 98.3 | 101 | 95.8 | 105 | 88.9 | 101 | 99.4 | 99 | 98.5 | 99.1 | > 10 | > 10 | > 10 | > 10 | > 10 | 0.3 | 0 | 0 | 0 | 0
